Like-named read-outs stand apart in the source and are kept apart here.
Assays:
[1] = tested on: G-protein heterotrimer (Gα2-CFP:Gβ-YFP) linked to cAMP chemoattractant receptors; test: FRET loss in living α2-CFP:β-YFP cells (fluorimeter); type: cell-based, D. discoideum; details: for EC50: read-out: EC50 for decrease of the FRET signal
Procedure: (§1) FIGS. 2A to 2E. Fluorescence spectra of cell lines. (FIG. 2A) Developed cells were excited in a Spex Fluoromax-2 fluorimeter at 440 nm and emission was collected between 460 nm and 600 nm and processed as described (14). Gα2-CFP/g α2^− cells (“α2-CFP”), α2-CFP: β-YFP cells (“α2-CFP: -YFP”), and mixture of equal number of Ga-2-CFP/gα2^− and G β-YFP/g βcells (“mixed cells”). […] Cells were scanned at selected time points following addition of the stimulus. […] Mean intensities were calculated in IPLab Spectrum by manually circumscribing the membrane of multiple cells. […] Arrows indicate the frame at which the stimulus was added. (FIG. 2E) Difference images of consecutive frames of one captured at 3 second intervals were calculated in IPLab Spectrum. […] Calibration bar is 10 μm.
FIGS. 3A to 3B. […] Data was processed as described (34). […] Data from two independent experiments were averaged for each curve.
We excited living, differentiated cells at 440 nm and recorded the emission spectrum between 460 and 600 nm.
• 1. A. G. Gilman, Annu Rev Biochem 56, 615-49 (1987). • 2. H. E. Hamm, J Biol Chem 273, 669-72 (1998). • 3. C. A. Parent, B. J. Blacklock, W. M. Froehlich, D. B. Murphy, P. N. Devreotes, Cell 95, 81-91 (1998). • 4. Z. Xiao, N. Zhang, D. B. Murphy, P. N. Devreotes, J Cell Biol 139, 365-74 (1997). • 5. G. Servant et al., Science 287, 1037-40 (2000). • 6. T. Jin, N. Zhang, Y. Long, C. A. Parent, P. N. Devreotes, Science 287, 1034-6 (2000). • 7. R. Heim, R. Y. Tsien, Curr Biol 6, 178-82 (1996). • 8. The coding region of the β-YFP fusion protein was cloned into the CV5 vector. CV5 was derived from p88 by addition of an actin 15/expression cassette from pMC34 (3). • 9. D. G. Lambright et al., Nature 379, 311-9 (1996). • 10. M. A. Wall et al., Cell 83, 1047-58 (1995) • 11. A. Kumagai et al., Cell 57, 265-75 (1989). • 12. The gene encoding CFP was inserted into a Spe1 site after residue 90, in the loop between the αA and the αB helices, of the Gα2 cDNA. The SpeI site also added a threonine and serine residue at the N and C terminal loundaries of the insertion. This fusion was cloned into the CV5 vector. The gα2^− cells were transformed, and individual G418 resistant clones were selected. […] Equal amounts of plasmids carrying the Gα2-CFP and Gβ-YFP fusions were mixed, transformed into gα2 cells, and individual G418 resistant clones were selected.

cAR1 = biological target: T1, cAR1 (Dictyostelium discoideum, UniProt P13773); details: cited from earlier work; for Kd: literature ref 16, read-out: reported binding affinity (average KD)
T1 sequence (P13773 1-392): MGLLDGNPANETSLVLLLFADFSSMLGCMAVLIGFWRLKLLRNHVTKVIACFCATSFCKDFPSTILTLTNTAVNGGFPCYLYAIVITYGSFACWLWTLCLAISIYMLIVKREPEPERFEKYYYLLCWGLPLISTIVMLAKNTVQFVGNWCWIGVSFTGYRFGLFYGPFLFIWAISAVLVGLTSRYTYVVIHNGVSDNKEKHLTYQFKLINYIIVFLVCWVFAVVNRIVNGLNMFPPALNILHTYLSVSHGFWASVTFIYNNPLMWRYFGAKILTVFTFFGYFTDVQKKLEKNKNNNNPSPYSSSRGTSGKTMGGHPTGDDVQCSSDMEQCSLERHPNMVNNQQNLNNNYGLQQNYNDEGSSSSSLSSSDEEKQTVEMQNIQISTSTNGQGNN

[2] = biological target: T2, G-protein heterotrimer (Gα2-CFP:Gβ-YFP) (Dictyostelium discoideum, UniProt P16051, INS90[…]); test: FRET signal in membranes prepared from α-CFP:β-YFP cells; type: biochemical, D. discoideum
T2 construct: expressed in transfected cells; host or cells: D. discoideum gα2-null cells (α-CFP:β-YFP cells), CV5 vector, G418-selected clones; living cells in A1 and A3, membranes prepared from them in A4

[3] = tested on: PH-domain recruitment to membranes; test: PH domain (PHCRAC-GFP) binding to membranes in cell lysates; type: biochemical, D. discoideum
Procedure: FIGS. 4A to 4C. Continuous activation of the G-protein cycle. […] (FIG. 4B) Receptor regulation of PH domain translocation. […] After 2 minutes membranes were collected and binding of the PHCRAC-GFP was assessed by immunoblot analysis using antibodies to GFP (22). (FIG. 4C) Assessment of cAR1 phosphorylation.

[4] = tested on: G-protein heterotrimer (Gα2-CFP:Gβ-YFP) in α-CFP:β-YFP cells; details: saturating dose, within 6 seconds
Procedure: as §1

[5] = α2-CFP:β-YFP cells, caffeine treated, 10 mM dithiothreitol

Nc1ncnc2c1ncn2C1CC2OP(=O)(O)OCC2O1 (stereo not shown) [2′-dcAMP]
EC50 [1, 5]: ~20 nM | Kd (cAR1): ~1000 nM

Nc1ncnc2c1ncn2[C@@H]1O[C@H](COP(=O)(O)O)[C@@H](O)[C@H]1O [5′-AMP]
effect on the FRET signal ([1]; 1 mM): no effect on the FRET signal | binding to cAR1 (cAR1): does not bind to cAR1

Nc1ncnc2c1nc(Br)n2[C@@H]1O[C@@H]2COP(=O)(O)O[C@H]2[C@H]1O [8-Br-cAMP]
EC50 [1, 5]: ~2000 nM | Kd (cAR1): ~32000 nM

Nc1nc2c(ncn2[C@@H]2O[C@H](COP(=O)(O)OP(=O)(O)OP(O)(O)=S)[C@@H](O)[C@H]2O)c(=O)[nH]1 [GTPγS]
FRET signal of membranes ([2]; GTPγS alone (data not shown)): not with GTPγS alone | FRET signal of membranes ([2]; Mg++ plus GTPγS (data not shown)): disappeared | binding of PH-domains to membranes ([3]; lysates from adapted cells (cAMP 15 minutes)): this response was lost | binding of PH-domains to membranes ([3]; lysates from naive cells): stimulated the binding of PH-domains to membranes

Nc1ncnc2c1ncn2C1OC2COP(=O)(O)OC2C1O (stereo not shown) [cAMP, cyclic adenosine 3′, 5′ phosphate]
FRET signal remaining, % of the initial value [1]: ~20% | change in FRET after adjusting to 10 μM [1]: further decrease in FRET | decrease of the FRET signal [1]: approximately 70% | duration of activation [1]: Activation did not subside | response as % of the maximum [1]: 90% | time for the FRET signal to return to its maximal level [1]: within two minutes | time to maximal response after stimulation [1]: ≤ 10 s | EC50 [1]: ~10 nM | decrease of the membrane FRET signal [4]: about 15%
